Measured values from PubChem BioAssay (NCI).
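Grown in 96-well plates, cells were treated for 48 hours with each compound at five concentrations. Insufficient inhibition: endpoint recorded as highest concentration tested. The concentration for full growth arrest is given as TGI.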

What was measured:
Experiment in all cases: NCI tumour cell line growth inhibition, 48 h
HOP-62 NSCLC = test system: HOP-62 NSCLC
MCF7 breast = test system: MCF7 breast
BT-549 breast = test system: BT-549 breast
LOX IMVI melanoma = test system: LOX IMVI melanoma
HL-60(TB) leukemia = test system: HL-60(TB) leukemia
RXF 393 renal = test system: RXF 393 renal
SF-268 CNS = test system: SF-268 CNS
SR leukemia = test system: SR leukemia
OVCAR-8 ovarian = test system: OVCAR-8 ovarian
NCI-H226 lung = test system: NCI-H226 lung
MDA-MB-435 = test system: MDA-MB-435
SK-MEL-2 melanoma = test system: SK-MEL-2 melanoma
COLO 205 colon = test system: COLO 205 colon
CAKI-1 renal = test system: CAKI-1 renal
A498 renal = test system: A498 renal
HCC-2998 colon = test system: HCC-2998 colon
HS 578T breast = test system: HS 578T breast
SN12C renal = test system: SN12C renal
MOLT-4 leukemia = test system: MOLT-4 leukemia
NCI/ADR-RES ovarian = test system: NCI/ADR-RES ovarian
EKVX NSCLC = test system: EKVX NSCLC
SF-295 CNS = test system: SF-295 CNS
T-47D breast = test system: T-47D breast
TK-10 renal = test system: TK-10 renal
A549 NSCLC = test system: A549 NSCLC
NCI-H23 lung = test system: NCI-H23 lung
HOP-92 NSCLC = test system: HOP-92 NSCLC
HCT-15 colon = test system: HCT-15 colon
OVCAR-4 ovarian = test system: OVCAR-4 ovarian
UACC-62 melanoma = test system: UACC-62 melanoma
NCI-H460 lung = test system: NCI-H460 lung
SF-539 CNS = test system: SF-539 CNS
HCT-116 colon = test system: HCT-116 colon
UO-31 renal = test system: UO-31 renal
SNB-19 CNS = test system: SNB-19 CNS
M14 melanoma = test system: M14 melanoma
IGROV1 ovarian = test system: IGROV1 ovarian
UACC-257 melanoma = test system: UACC-257 melanoma
MDA-N = test system: MDA-N
SK-MEL-28 melanoma = test system: SK-MEL-28 melanoma
786-0 renal = test system: 786-0 renal
OVCAR-5 ovarian = test system: OVCAR-5 ovarian
OVCAR-3 ovarian = test system: OVCAR-3 ovarian
SK-OV-3 ovarian = test system: SK-OV-3 ovarian
RPMI-8226 leukemia = test system: RPMI-8226 leukemia
SNB-75 CNS = test system: SNB-75 CNS
ACHN renal = test system: ACHN renal
K-562 leukemia = test system: K-562 leukemia
U251 CNS = test system: U251 CNS
PC-3 prostate = test system: PC-3 prostate
KM12 colon = test system: KM12 colon
MDA-MB-231 breast = test system: MDA-MB-231 breast
HT29 colon = test system: HT29 colon
DU-145 prostate = test system: DU-145 prostate
SW-620 colon = test system: SW-620 colon
CCRF-CEM leukemia = test system: CCRF-CEM leukemia
SK-MEL-5 melanoma = test system: SK-MEL-5 melanoma
MALME-3M melanoma = test system: MALME-3M melanoma

**Q.** For NC(N)=NCCCC(NC(=O)OCCCCCn1ccc(N)nc1=O)C(=O)O (centres undefined), which TGI (HOP-62 NSCLC) is on record?
**A.** > 100 µM

**Q.** And the TGI (MCF7 breast)?
**A.** > 100 µM

**Q.** What about the TGI (BT-549 breast) of the same compound?
**A.** > 100 µM

**Q.** And the TGI (LOX IMVI melanoma)?
**A.** > 100 µM

**Q.** What about the TGI (HL-60(TB) leukemia) of the same compound?
**A.** > 100 µM

**Q.** What about the TGI (RXF 393 renal) of the same compound?
**A.** > 100 µM

**Q.** What about the TGI (SF-268 CNS) of the same compound?
**A.** > 100 µM

**Q.** What about the TGI (SR leukemia) of the same compound?
**A.** > 100 µM

**Q.** What about the TGI (OVCAR-8 ovarian) of the same compound?
**A.** > 100 µM

**Q.** And the TGI (NCI-H226 lung)?
**A.** > 100 µM

**Q.** And the TGI (MDA-MB-435)?
**A.** > 100 µM

**Q.** And the TGI (SK-MEL-2 melanoma)?
**A.** > 100 µM

**Q.** And the TGI (COLO 205 colon)?
**A.** > 100 µM

**Q.** And the TGI (CAKI-1 renal)?
**A.** > 100 µM

**Q.** What about the TGI (A498 renal) of the same compound?
**A.** > 100 µM

**Q.** What about the TGI (HCC-2998 colon) of the same compound?
**A.** > 100 µM

**Q.** What about the TGI (HS 578T breast) of the same compound?
**A.** > 100 µM

**Q.** And the TGI (SN12C renal)?
**A.** > 100 µM

**Q.** What about the TGI (MOLT-4 leukemia) of the same compound?
**A.** > 100 µM

**Q.** What about the TGI (NCI/ADR-RES ovarian) of the same compound?
**A.** > 100 µM

**Q.** What about the TGI (EKVX NSCLC) of the same compound?
**A.** > 100 µM

**Q.** What about the TGI (SF-295 CNS) of the same compound?
**A.** > 100 µM

**Q.** What about the TGI (T-47D breast) of the same compound?
**A.** > 100 µM

**Q.** And the TGI (TK-10 renal)?
**A.** > 100 µM

**Q.** And the TGI (A549 NSCLC)?
**A.** > 100 µM

**Q.** What about the TGI (NCI-H23 lung) of the same compound?
**A.** > 100 µM

**Q.** And the TGI (HOP-92 NSCLC)?
**A.** > 100 µM

**Q.** What about the TGI (HCT-15 colon) of the same compound?
**A.** > 100 µM

**Q.** And the TGI (OVCAR-4 ovarian)?
**A.** > 100 µM

**Q.** And the TGI (UACC-62 melanoma)?
**A.** > 100 µM

**Q.** And the TGI (NCI-H460 lung)?
**A.** > 100 µM

**Q.** What about the TGI (SF-539 CNS) of the same compound?
**A.** > 100 µM

**Q.** What about the TGI (HCT-116 colon) of the same compound?
**A.** > 100 µM

**Q.** What about the TGI (UO-31 renal) of the same compound?
**A.** > 100 µM

**Q.** What about the TGI (SNB-19 CNS) of the same compound?
**A.** > 100 µM

**Q.** What about the TGI (M14 melanoma) of the same compound?
**A.** > 100 µM

**Q.** And the TGI (IGROV1 ovarian)?
**A.** > 100 µM

**Q.** What about the TGI (UACC-257 melanoma) of the same compound?
**A.** > 100 µM

**Q.** What about the TGI (MDA-N) of the same compound?
**A.** > 100 µM

**Q.** And the TGI (SK-MEL-28 melanoma)?
**A.** > 100 µM

**Q.** What about the TGI (786-0 renal) of the same compound?
**A.** > 100 µM

**Q.** And the TGI (OVCAR-5 ovarian)?
**A.** > 100 µM

**Q.** And the TGI (OVCAR-3 ovarian)?
**A.** > 100 µM

**Q.** What about the TGI (SK-OV-3 ovarian) of the same compound?
**A.** > 100 µM

**Q.** And the TGI (RPMI-8226 leukemia)?
**A.** > 100 µM

**Q.** And the TGI (SNB-75 CNS)?
**A.** > 100 µM

**Q.** And the TGI (ACHN renal)?
**A.** > 100 µM

**Q.** And the TGI (K-562 leukemia)?
**A.** > 100 µM

**Q.** And the TGI (U251 CNS)?
**A.** > 100 µM

**Q.** And the TGI (PC-3 prostate)?
**A.** > 100 µM

**Q.** And the TGI (KM12 colon)?
**A.** > 100 µM

**Q.** And the TGI (MDA-MB-231 breast)?
**A.** > 100 µM

**Q.** What about the TGI (HT29 colon) of the same compound?
**A.** > 100 µM

**Q.** What about the TGI (DU-145 prostate) of the same compound?
**A.** > 100 µM

**Q.** What about the TGI (SW-620 colon) of the same compound?
**A.** > 100 µM

**Q.** What about the TGI (CCRF-CEM leukemia) of the same compound?
**A.** > 100 µM

**Q.** For Cc1ccc(NN=NCCCCN=NNc2ccc(C)cc2)cc1, which TGI (HOP-62 NSCLC) is on record?
**A.** > 100 µM

**Q.** And the TGI (MCF7 breast)?
**A.** > 100 µM

**Q.** What about the TGI (BT-549 breast) of the same compound?
**A.** > 100 µM

**Q.** And the TGI (LOX IMVI melanoma)?
**A.** > 100 µM

**Q.** And the TGI (HL-60(TB) leukemia)?
**A.** 30.3 µM

**Q.** What about the TGI (RXF 393 renal) of the same compound?
**A.** > 100 µM

**Q.** And the TGI (SF-268 CNS)?
**A.** > 100 µM

**Q.** And the TGI (SR leukemia)?
**A.** > 100 µM

**Q.** And the TGI (OVCAR-8 ovarian)?
**A.** > 100 µM

**Q.** What about the TGI (NCI-H226 lung) of the same compound?
**A.** > 100 µM

**Q.** What about the TGI (MDA-MB-435) of the same compound?
**A.** > 100 µM

**Q.** What about the TGI (SK-MEL-2 melanoma) of the same compound?
**A.** > 100 µM

**Q.** What about the TGI (COLO 205 colon) of the same compound?
**A.** > 100 µM

**Q.** And the TGI (CAKI-1 renal)?
**A.** > 100 µM

**Q.** What about the TGI (A498 renal) of the same compound?
**A.** > 100 µM

**Q.** What about the TGI (HCC-2998 colon) of the same compound?
**A.** > 100 µM

**Q.** And the TGI (HS 578T breast)?
**A.** > 100 µM

**Q.** What about the TGI (SN12C renal) of the same compound?
**A.** > 100 µM

**Q.** And the TGI (MOLT-4 leukemia)?
**A.** > 100 µM

**Q.** And the TGI (NCI/ADR-RES ovarian)?
**A.** > 100 µM

**Q.** What about the TGI (EKVX NSCLC) of the same compound?
**A.** > 100 µM

**Q.** What about the TGI (SF-295 CNS) of the same compound?
**A.** > 100 µM

**Q.** What about the TGI (T-47D breast) of the same compound?
**A.** > 100 µM

**Q.** And the TGI (TK-10 renal)?
**A.** 17.9 µM

**Q.** And the TGI (A549 NSCLC)?
**A.** > 100 µM

**Q.** And the TGI (NCI-H23 lung)?
**A.** 81.2 µM

**Q.** What about the TGI (HOP-92 NSCLC) of the same compound?
**A.** > 100 µM

**Q.** What about the TGI (HCT-15 colon) of the same compound?
**A.** > 100 µM

**Q.** What about the TGI (OVCAR-4 ovarian) of the same compound?
**A.** > 100 µM

**Q.** And the TGI (UACC-62 melanoma)?
**A.** > 100 µM

**Q.** And the TGI (NCI-H460 lung)?
**A.** > 100 µM

**Q.** And the TGI (SF-539 CNS)?
**A.** > 100 µM

**Q.** What about the TGI (HCT-116 colon) of the same compound?
**A.** > 100 µM

**Q.** And the TGI (UO-31 renal)?
**A.** 2.1 µM

**Q.** And the TGI (M14 melanoma)?
**A.** > 100 µM

**Q.** And the TGI (IGROV1 ovarian)?
**A.** > 100 µM

**Q.** What about the TGI (UACC-257 melanoma) of the same compound?
**A.** > 100 µM

**Q.** And the TGI (SK-MEL-5 melanoma)?
**A.** > 100 µM

**Q.** What about the TGI (MDA-N) of the same compound?
**A.** > 100 µM

**Q.** And the TGI (SK-MEL-28 melanoma)?
**A.** > 100 µM

**Q.** What about the TGI (OVCAR-5 ovarian) of the same compound?
**A.** > 100 µM

**Q.** What about the TGI (OVCAR-3 ovarian) of the same compound?
**A.** > 100 µM

**Q.** What about the TGI (SK-OV-3 ovarian) of the same compound?
**A.** > 100 µM

**Q.** And the TGI (SNB-75 CNS)?
**A.** > 100 µM

**Q.** What about the TGI (K-562 leukemia) of the same compound?
**A.** > 100 µM

**Q.** And the TGI (MALME-3M melanoma)?
**A.** > 100 µM

**Q.** What about the TGI (U251 CNS) of the same compound?
**A.** > 100 µM

**Q.** What about the TGI (PC-3 prostate) of the same compound?
**A.** > 100 µM

**Q.** And the TGI (MDA-MB-231 breast)?
**A.** > 100 µM

**Q.** And the TGI (HT29 colon)?
**A.** > 100 µM

**Q.** What about the TGI (DU-145 prostate) of the same compound?
**A.** > 100 µM

**Q.** What about the TGI (SW-620 colon) of the same compound?
**A.** > 100 µM

**Q.** What about the TGI (CCRF-CEM leukemia) of the same compound?
**A.** 98.4 µM
